Columns and labels:
Test in all cases: Test D controlled growth environment herbicide test, pre- and postemergence
Type in all cases: in vivo
[1] = tested on: barley, spring (spring barley, Hordeum vulgare)
Excerpt: (§1) Seeds of plant species selected from bluegrass (annual bluegrass, Poa annua), blackgrass (Alopecurus myosuroides), Canada thistle (Cirsium arvense), canarygrass (Phalaris minor), chickweed (common chickweed, Stellaria media), geranium, cutleaf (cutleaf geranium, Geranium dissectum), galium (catchweed bedstraw, Galium aparine), bromegrass, downy (downy bromegrass, Bromus tectorum), field poppy (Papaver rhoeas), field violet (Viola arvensis), foxtail, green (green foxtail, Setaria viridis), deadnettle (henbit deadnettle, Lamium amplexicaule), ryegrass, Italian (Italian ryegrass, Lolium multiflorum), kochia (Kochia scoparia), lambsquarters (Chenopodium album), oilseed rape (Brassica napus), pigweed (Amaranthus retroflexus), chamomile (scentless chamomile, Matricaria inodora), Russian thistle (Salsola kali), speedwell (bird's-eye speedwell, Veronica persica), barley, spring (spring barley, Hordeum vulgare), wheat, spring (spring wheat, Triticum aestivum), buckwheat, wild (wild buckwheat, Polygonum convolvulus), mustard, wild (wild mustard, Sinapis arvensis), oat, wild (wild oat, Avena fatua), radish, wild (wild radish, Raphanus raphanistrum), windgrass (Apera spica-venti), barley, winter (winter barley, Hordeum vulgare), and wheat, winter (winter wheat, Triticum aestivum) were planted into a silt loam soil and treated preemergence with test chemicals formulated in a non-phytotoxic solvent mixture which included a surfactant.
(§2) At the same time, these species were planted in pots containing Redi-Earth® planting medium (Scotts Company, 14111 Scottslawn Road, Marysville, Ohio 43041) comprising spaghnum peat moss, vermiculite, wetting agent and starter nutrients and treated with postemergence applications of the test chemicals formulated in the same manner. Plants ranged in height from 2 to 18 cm (1- to 4-leaf stage). Treated plants and controls were maintained in a controlled growth environment for 14 to 21 d after which time all species were compared to controls and visually evaluated. Plant response ratings, summarized in Table D, are based on a scale of 0 to 100 where 0 is no effect and 100 is complete control. A dash (-) response means no test result.

[2] = tested on: oat, wild (wild oat, Avena fatua)
Excerpt: as §1, §2

[3] = tested on: deadnettle (henbit deadnettle, Lamium amplexicaule)
Excerpt: as §1, §2

[4] = tested on: wheat, spring (spring wheat, Triticum aestivum)
Excerpt: as §1, §2

[5] = tested on: pigweed (Amaranthus retroflexus)
Excerpt: as §1, §2

kochia (Kochia scoparia) = tested on: kochia (Kochia scoparia)
Excerpt: as §1, §2

[6] = tested on: foxtail, green (green foxtail, Setaria viridis)
Excerpt: as §1, §2

[7] = tested on: field violet (Viola arvensis)
Excerpt: as §1, §2

[8] = tested on: windgrass (Apera spica-venti)
Excerpt: as §1, §2

[9] = tested on: wheat, winter (winter wheat, Triticum aestivum)
Excerpt: as §1, §2

[10] = tested on: mustard, wild (wild mustard, Sinapis arvensis)
Excerpt: as §1, §2

[11] = tested on: bluegrass (annual bluegrass, Poa annua)
Excerpt: as §1, §2

[12] = tested on: Russian thistle (Salsola kali)
Excerpt: as §1, §2

[13] = Postemergence, 31 g ai/ha, scale 0 to 100 (0 no effect, 100 complete control)
[14] = Postemergence, 125 g ai/ha, visual rating on scale 0 (no effect) to 100 (complete control), 14 to 21 d
[15] = Postemergence, 250 g ai/ha, scale 0 to 100 (0 no effect, 100 complete control)
[16] = Preemergence, 62 g ai/ha, scale 0 to 100 (0 no effect, 100 complete control)
[17] = Preemergence, 125 g ai/ha, scale 0 to 100 (0 no effect, 100 complete control)
[18] = Preemergence, 250 g ai/ha, scale 0 to 100 (0 no effect, 100 complete control)
[19] = postemergence, 62 g ai/ha, scale 0 to 100, 0 no effect, 100 complete control

Cc1cc(C)c2sc(C)c(-c3c(OC(=O)OC(C)C)c(C)nn(C)c3=O)c2c1 [Compound 67]
70: Plant response rating (scale of 0 to 100), Oat, Wild ([2]; Preemergence, 31 g ai/ha)
0: Barley, Spring plant response rating [1, 13] | Plant response rating (scale of 0 to 100), Barley, Spring ([1]; Preemergence, 31 g ai/ha) | Plant response rating, Barley, Spring [1, 16] | Plant response rating, Barley, Spring [1, 17] | Plant response rating, Barley, Spring [1, 18] | Wheat, Spring plant response rating [4, 13] | Plant response rating, Wheat, Spring [4, 14] | Plant response rating (scale of 0 to 100), Wheat, Spring ([4]; Preemergence, 31 g ai/ha) | Plant response rating, Wheat, Spring [4, 16] | Plant response rating, Wheat, Spring [4, 17] | Plant response rating, Wheat, Spring [4, 19] | Plant response rating (scale of 0 to 100), Kochia (kochia (Kochia scoparia); Preemergence, 31 g ai/ha) | Plant response rating, Kochia (kochia (Kochia scoparia); [16]) | Plant response rating, Kochia (kochia (Kochia scoparia); [17]) | Plant response rating, Kochia (kochia (Kochia scoparia); [18]) | Wheat, Winter plant response rating [9, 13] | Plant response rating, Wheat, Winter [9, 14] | Plant response rating, Wheat, Winter [9, 15] | Plant response rating (scale of 0 to 100), Wheat, Winter ([9]; Preemergence, 31 g ai/ha) | Plant response rating, Wheat, Winter [9, 16] | Plant response rating, Wheat, Winter [9, 17] | Plant response rating, Wheat, Winter [9, 19] | Plant response rating (scale of 0 to 100), Mustard, Wild ([10]; Preemergence, 31 g ai/ha) | Plant response rating, Mustard, Wild [10, 16] | Plant response rating, Mustard, Wild [10, 17] | Plant response rating, Mustard, Wild [10, 18] | Plant response rating (scale of 0 to 100), Bluegrass ([11]; Preemergence, 31 g ai/ha) | Plant response rating, Bluegrass [11, 16] | Plant response rating (scale of 0 to 100), Russian Thistle ([12]; Preemergence, 31 g ai/ha) | Plant response rating, Russian Thistle [12, 16] | Plant response rating, Russian Thistle [12, 17]
15: Plant response rating (scale of 0 to 100), Deadnettle ([3]; Preemergence, 31 g ai/ha) | Plant response rating (scale of 0 to 100), Foxtail, Green ([6]; Preemergence, 31 g ai/ha) | Plant response rating, Bluegrass [11, 19]
50: Plant response rating, Kochia (kochia (Kochia scoparia); [15]) | Plant response rating, Bluegrass [11, 18]
60: Plant response rating, Deadnettle [3, 15] | Plant response rating, Deadnettle [3, 18] | Plant response rating, Russian Thistle [12, 19]
55: Plant response rating, Deadnettle [3, 17] | Russian Thistle plant response rating [12, 13]
40: Deadnettle plant response rating [3, 13] | Plant response rating, Deadnettle [3, 14] | Plant response rating, Kochia (kochia (Kochia scoparia); [14]) | Plant response rating, Mustard, Wild [10, 14]
75: Plant response rating, Oat, Wild [2, 16] | Pigweed plant response rating [5, 13] | Plant response rating, Windgrass [8, 16] | Plant response rating, Russian Thistle [12, 14]
30: Plant response rating, Deadnettle [3, 16] | Plant response rating, Deadnettle [3, 19] | Plant response rating (scale of 0 to 100), Windgrass ([8]; Preemergence, 31 g ai/ha) | Plant response rating, Bluegrass [11, 15]
85: Plant response rating, Pigweed [5, 14] | Plant response rating, Foxtail, Green [6, 17] | Plant response rating, Foxtail, Green [6, 18] | Plant response rating (scale of 0 to 100), Field Violet ([7]; Preemergence, 31 g ai/ha) | Windgrass plant response rating [8, 13] | Plant response rating, Windgrass [8, 19] | Plant response rating, Russian Thistle [12, 15]
10: Plant response rating, Barley, Spring [1, 14] | Plant response rating, Wheat, Spring [4, 18] | Kochia plant response rating (kochia (Kochia scoparia); [13])
80: Plant response rating, Oat, Wild [2, 17] | Plant response rating, Pigweed [5, 19] | Foxtail, Green plant response rating [6, 13] | Plant response rating, Foxtail, Green [6, 16] | Field Violet plant response rating [7, 13] | Plant response rating, Field Violet [7, 19] | Plant response rating, Windgrass [8, 17]
95: Oat, Wild plant response rating [2, 13] | Plant response rating, Pigweed [5, 16] | Plant response rating, Field Violet [7, 15] | Plant response rating, Windgrass [8, 18]
90: Plant response rating, Oat, Wild [2, 18] | Plant response rating, Foxtail, Green [6, 19] | Plant response rating, Field Violet [7, 14] | Plant response rating, Windgrass [8, 14] | Plant response rating, Windgrass [8, 15]
5: Plant response rating, Barley, Spring [1, 19] | Plant response rating, Wheat, Spring [4, 15] | Plant response rating, Wheat, Winter [9, 18] | Bluegrass plant response rating [11, 13]
35: Plant response rating (scale of 0 to 100), Pigweed ([5]; Preemergence, 31 g ai/ha) | Plant response rating, Kochia (kochia (Kochia scoparia); [19]) | Plant response rating, Mustard, Wild [10, 19]
98: Plant response rating, Oat, Wild [2, 19] | Plant response rating, Field Violet [7, 16]
25: Mustard, Wild plant response rating [10, 13] | Plant response rating, Russian Thistle [12, 18]
65: Plant response rating, Mustard, Wild [10, 15]
20: Plant response rating, Barley, Spring [1, 15] | Plant response rating, Bluegrass [11, 14] | Plant response rating, Bluegrass [11, 17]
100: Plant response rating, Oat, Wild [2, 14] | Plant response rating, Oat, Wild [2, 15] | Plant response rating, Pigweed [5, 15] | Plant response rating, Pigweed [5, 17] | Plant response rating, Pigweed [5, 18] | Plant response rating, Foxtail, Green [6, 14] | Plant response rating, Foxtail, Green [6, 15] | Plant response rating, Field Violet [7, 17] | Plant response rating, Field Violet [7, 18]

Reference: patent US10597388B2, “Pyridazinone herbicides” (FMC CORPORATION, priority 2014, dated 2020)
